Values of other authors in publication PMC8513935.
Values belong to the compound of their own block, whether it stands above or below them.

Key:
[1] = log P octanol/water from commercial databases, averaged (the ESI); conditions: Octanol (wet), 25 C
[2] = derived by the authors as gas->solvent minus gas->water (a hypothetical dry solvent; the ESI), not a two-phase measurement
[3] = experimental, compiled by the authors from the literature (the ESI cites the sources)

SMILES: C
log K of transfer, water to solvent [1]: 1.09 log10 K | log K of transfer, water to solvent ([2]; Acetone, 25 C): 1.24 log10 K | log K of transfer, water to solvent ([2]; Butan-1-ol, 25 C): 1.15 log10 K | log K of transfer, water to solvent ([2]; CCl4, 25 C): 1.32 log10 K | log K of transfer, water to solvent ([2]; Chlorobenzene, 25 C): 1.13 log10 K | log K of transfer, water to solvent ([2]; Decan-1-ol, 25 C): 1.05 log10 K | log K of transfer, water to solvent ([2]; Diethyl Ether, 25 C): 1.48 log10 K | log K of transfer, water to solvent ([2]; Ethanol, 25 C): 1.17 log10 K | log K of transfer, water to solvent ([2]; Heptan-1-ol, 25 C): 1.11 log10 K | log K of transfer, water to solvent ([2]; Hexadecane, 25 C): 1.14 log10 K | log K of transfer, water to solvent ([2]; Hexan-1-ol, 25 C): 1.12 log10 K | log K of transfer, water to solvent ([2]; Hexane, 25 C): 1.44 log10 K | log K of transfer, water to solvent ([2]; Methanol, 25 C): 1.19 log10 K | log K of transfer, water to solvent ([2]; Octan-1-ol(dry), 25 C): 1.08 log10 K | log K of transfer, water to solvent ([2]; Pentan-1-ol, 25 C): 1.13 log10 K | log K of transfer, water to solvent ([2]; Perfluoroalkane, 25 C): 1.42 log10 K | log K of transfer, water to solvent ([2]; Propan-1-ol, 25 C): 1.17 log10 K | log K of transfer, water to solvent ([2]; Propan-2-ol, 25 C): 1.13 log10 K | log K of transfer, water to solvent ([2]; Tetrahydrofuran, 25 C): 1.28 log10 K

SMILES: c1ccccc1
log K of transfer, water to solvent [1]: 2.08 log10 K | log K of transfer, water to solvent ([2]; 1,2-Dichloroethane, 25 C): 2.69 log10 K | log K of transfer, water to solvent ([2]; 2-Methylpropan-1-ol, 25 C): 2.09 log10 K | log K of transfer, water to solvent ([2]; 2-Methylpropan-2-ol, 25 C): 2.09 log10 K | log K of transfer, water to solvent ([2]; Acetone, 25 C): 2.58 log10 K | log K of transfer, water to solvent ([2]; Acetonitrile, 25 C): 2.43 log10 K | log K of transfer, water to solvent ([2]; Benzene, 25 C): 2.71 log10 K | log K of transfer, water to solvent ([2]; Butan-1-ol, 25 C): 2.24 log10 K | log K of transfer, water to solvent ([2]; Butan-2-ol, 25 C): 2.14 log10 K | log K of transfer, water to solvent ([2]; Butanone, 25 C): 2.66 log10 K | log K of transfer, water to solvent ([2]; Butyronitrile, 25 C): 2.6 log10 K | log K of transfer, water to solvent ([2]; CCl4, 25 C): 2.61 log10 K | log K of transfer, water to solvent ([2]; Chlorobenzene, 25 C): 2.61 log10 K | log K of transfer, water to solvent ([2]; Chloroform, 25 C): 2.76 log10 K | log K of transfer, water to solvent ([2]; Cyclohexane, 25 C): 2.3 log10 K | log K of transfer, water to solvent ([2]; Cyclohexanone, 25 C): 2.67 log10 K | log K of transfer, water to solvent ([2]; Decan-1-ol, 25 C): 2 log10 K | log K of transfer, water to solvent ([2]; Di-n-butyl ether, 25 C): 2.38 log10 K | log K of transfer, water to solvent ([2]; Dichloromethane, 25 C): 2.89 log10 K | log K of transfer, water to solvent ([2]; Ethanol, 25 C): 2.15 log10 K | log K of transfer, water to solvent ([2]; Heptan-1-ol, 25 C): 2.18 log10 K | log K of transfer, water to solvent ([2]; Hexadecane, 25 C): 2.15 log10 K | log K of transfer, water to solvent ([2]; Hexane, 25 C): 2.31 log10 K | log K of transfer, water to solvent ([2]; Methanol, 25 C): 2.14 log10 K | log K of transfer, water to solvent ([2]; Octan-1-ol(dry), 25 C): 2.17 log10 K | log K of transfer, water to solvent ([2]; Pentan-1-ol, 25 C): 2.2 log10 K | log K of transfer, water to solvent ([2]; Propan-1-ol, 25 C): 2.15 log10 K | log K of transfer, water to solvent ([2]; Propan-2-ol, 25 C): 2.04 log10 K | log K of transfer, water to solvent ([2]; Propionitrile, 25 C): 2.6 log10 K | log K of transfer, water to solvent ([2]; Tetrahydrofuran, 25 C): 2.85 log10 K | log K of transfer, water to solvent ([2]; Toluene, 25 C): 2.64 log10 K

SMILES: CCCCCC
log K of transfer, water to solvent [1]: 3.9 log10 K | log K of transfer, gas to solvent ([3]; 1,2-Dichloroethane, 25 C): 2.51 log10 K | log K of transfer, gas to solvent ([3]; 2-Methylpropan-1-ol, 25 C): 2.46 log10 K | log K of transfer, gas to solvent ([3]; 2-Methylpropan-2-ol, 25 C): 2.44 log10 K | log K of transfer, gas to solvent ([3]; 3-Methylbutan-1-ol, 25 C): 2.39 log10 K | log K of transfer, gas to solvent ([3]; Acetonitrile, 25 C): 1.96 log10 K | log K of transfer, gas to solvent ([3]; Benzene, 25 C): 2.65 log10 K | log K of transfer, gas to solvent ([3]; Butan-1-ol, 25 C): 2.44 log10 K | log K of transfer, gas to solvent ([3]; Butanone, 25 C): 2.52 log10 K | log K of transfer, gas to solvent ([3]; Butyronitrile, 25 C): 2.34 log10 K | log K of transfer, gas to solvent ([3]; CCl4, 25 C): 2.98 log10 K | log K of transfer, gas to solvent ([3]; Chlorobenzene, 25 C): 2.95 log10 K | log K of transfer, gas to solvent ([3]; Chloroform, 25 C): 2.87 log10 K | log K of transfer, gas to solvent ([3]; Cyclohexanone, 25 C): 2.44 log10 K | log K of transfer, gas to solvent ([3]; Di-n-butyl ether, 25 C): 2.82 log10 K | log K of transfer, gas to solvent ([3]; Dichloromethane, 25 C): 2.75 log10 K | log K of transfer, gas to solvent ([3]; Ethanol, 25 C): 2.24 log10 K | log K of transfer, gas to solvent ([3]; Heptan-1-ol, 25 C): 2.44 log10 K | log K of transfer, gas to solvent ([3]; Hexadecane, 25 C): 2.67 log10 K | log K of transfer, gas to solvent ([3]; Hexan-1-ol, 25 C): 2.48 log10 K | log K of transfer, gas to solvent ([3]; Hexane, 25 C): 2.97 log10 K | log K of transfer, gas to solvent ([3]; Methanol, 25 C): 2.05 log10 K | log K of transfer, gas to solvent ([3]; Octan-1-ol, 25 C): 2.44 log10 K | log K of transfer, gas to solvent ([3]; Pentan-1-ol, 25 C): 2.44 log10 K | log K of transfer, gas to solvent ([3]; Perfluoroalkane, 25 C): 1.88 log10 K | log K of transfer, gas to solvent ([3]; Propan-1-ol, 25 C): 2.28 log10 K | log K of transfer, gas to solvent ([3]; Propan-2-ol, 25 C): 2.3 log10 K | log K of transfer, gas to solvent ([3]; Propanone, 25 C): 2.37 log10 K | log K of transfer, gas to solvent ([3]; Propionitrile, 25 C): 2.22 log10 K | log K of transfer, gas to solvent ([3]; Tetrahydrofuran, 25 C): 2.84 log10 K | log K of transfer, gas to solvent ([3]; Toluene, 25 C): 2.82 log10 K | log K of transfer, gas to solvent ([3]; Water, 25 C): -1.82 log10 K

Continued, values first:

log K of transfer, water to solvent [1]: 2.89 log10 K | log K of transfer, gas to solvent ([3]; 2-Methylpropan-1-ol, 25 C): 1.49 log10 K | log K of transfer, gas to solvent ([3]; 2-Methylpropan-2-ol, 25 C): 1.52 log10 K | log K of transfer, gas to solvent ([3]; 3-Methylbutan-1-ol, 25 C): 1.48 log10 K | log K of transfer, gas to solvent ([3]; Butan-1-ol, 25 C): 1.37 log10 K | log K of transfer, gas to solvent ([3]; Butanone, 25 C): 1.69 log10 K | log K of transfer, gas to solvent ([3]; CCl4, 25 C): 1.96 log10 K | log K of transfer, gas to solvent ([3]; Chlorobenzene, 25 C): 1.7 log10 K | log K of transfer, gas to solvent ([3]; Cyclohexane, 25 C): 2.1 log10 K | log K of transfer, gas to solvent ([3]; Di-n-butyl ether, 25 C): 1.79 log10 K | log K of transfer, gas to solvent ([3]; Ethanol, 25 C): 1.4 log10 K | log K of transfer, gas to solvent ([3]; Heptan-1-ol, 25 C): 1.43 log10 K | log K of transfer, gas to solvent ([3]; Hexadecane, 25 C): 1.61 log10 K | log K of transfer, gas to solvent ([3]; Hexane, 25 C): 1.87 log10 K | log K of transfer, gas to solvent ([3]; Methanol, 25 C): 1.27 log10 K | log K of transfer, gas to solvent ([3]; Octan-1-ol, 25 C): 1.53 log10 K | log K of transfer, gas to solvent ([3]; Pentan-1-ol, 25 C): 1.49 log10 K | log K of transfer, gas to solvent ([3]; Propan-1-ol, 25 C): 1.45 log10 K | log K of transfer, gas to solvent ([3]; Propan-2-ol, 25 C): 1.49 log10 K | log K of transfer, gas to solvent ([3]; Propanone, 25 C): 1.56 log10 K | log K of transfer, gas to solvent ([3]; Water, 25 C): -1.52 log10 K
SMILES: CCCC

log K of transfer, water to solvent [1]: -0.755 log10 K | log K of transfer, water to solvent ([2]; 1,2-Dichloroethane, 25 C): -1.58 log10 K | log K of transfer, water to solvent ([2]; 2-Methylpropan-1-ol, 25 C): -0.58 log10 K | log K of transfer, water to solvent ([2]; 2-Methylpropan-2-ol, 25 C): -0.35 log10 K | log K of transfer, water to solvent ([2]; 3-Methylbutan-1-ol, 25 C): -0.672 log10 K | log K of transfer, water to solvent ([2]; Acetone, 25 C): -0.71 log10 K | log K of transfer, water to solvent ([2]; Acetonitrile, 25 C): -0.81 log10 K | log K of transfer, water to solvent ([2]; Benzene, 25 C): -1.85 log10 K | log K of transfer, water to solvent ([2]; Butan-1-ol, 25 C): -0.72 log10 K | log K of transfer, water to solvent ([2]; Butan-2-ol, 25 C): -0.45 log10 K | log K of transfer, water to solvent ([2]; Butanone, 25 C): -0.93 log10 K | log K of transfer, water to solvent ([2]; Butyronitrile, 25 C): -1.06 log10 K | log K of transfer, water to solvent ([2]; CCl4, 25 C): -2.24 log10 K | log K of transfer, water to solvent ([2]; Chlorobenzene, 25 C): -2.07 log10 K | log K of transfer, water to solvent ([2]; Chloroform, 25 C): -1.33 log10 K | log K of transfer, water to solvent ([2]; Cyclohexane, 25 C): -2.77 log10 K | log K of transfer, water to solvent ([2]; Decan-1-ol, 25 C): -1.21 log10 K | log K of transfer, water to solvent ([2]; Di-n-butyl ether, 25 C): -1.8 log10 K | log K of transfer, water to solvent ([2]; Dichloromethane, 25 C): -1.45 log10 K | log K of transfer, water to solvent ([2]; Diethyl Ether, 25 C): -1.26 log10 K | log K of transfer, water to solvent ([2]; Ethanol, 25 C): -0.34 log10 K | log K of transfer, water to solvent ([2]; Hexadecane, 25 C): -2.77 log10 K | log K of transfer, water to solvent ([2]; Hexane, 25 C): -2.59 log10 K | log K of transfer, water to solvent ([2]; Methanol, 25 C): -0.14 log10 K | log K of transfer, water to solvent ([2]; Octan-1-ol(dry), 25 C): -0.9 log10 K | log K of transfer, water to solvent ([2]; Pentan-1-ol, 25 C): -0.67 log10 K | log K of transfer, water to solvent ([2]; Propan-1-ol, 25 C): -0.59 log10 K | log K of transfer, water to solvent ([2]; Propan-2-ol, 25 C): -0.46 log10 K | log K of transfer, water to solvent ([2]; Tetrahydrofuran, 25 C): -0.9 log10 K | log K of transfer, water to solvent ([2]; Toluene, 25 C): -2.14 log10 K
SMILES: CO
